Patent US8226944B2, “Composition for treating virus infection disease comprising Jab1” (priority 2004, dated 2012)
Square brackets hold non-standard residues; d marks the D form. Peptide text beside a SMILES is read from it. Nle = CCCC[C@H](N)C(=O)O

Legend:
caspase-3 and caspase-9 = experiment: Caspase activity assay (colorimetric) in transfected 293T cells; format: cell-based, human; conditions: 293T cells co-expressing WNV-Cp and Jab1 versus WNV-Cp alone, 24 hrs after transfection
Protocol: 293T cells were plated onto 60-mm plates at a density of 3×10^5 cells, cultured, and transfected with pcDNA3-HA, pcDNA3-HA/Cp, pCMV-tag2B-Jab1, both pcDNA3-HA/Cp and pCMV-tag2B-Jab1, and pcDNA3-Bax, respectively. After 24 hrs, the cells were washed with 1×PBS twice, transferred to 1.5-ml tubes, and lysed with 20 μl of buffer C (25% glycerol, 0.42 M NaCl, 1.5 M MgCl2, 0.2 mM EDTA, 20 mM HEPES, 1 mM DTT, 0.5 mM PMSF, pH7.9). After being incubated for 10 min on ice, the lysed cells were centrifuged. The total protein concentration in each supernatant was measured, and samples of zero to 300 μg of proteins were placed into a 96-well plate. To the 96-well plate, 50 μl of 2× reaction buffer and 5 μl of 4 mM DNA-conjugated substrate, provided in a caspase colorimetric substrate set II plus kit (Biovision), were added. After a 1-hr incubation at 37° C., the activity of caspase-3 and caspase-9 was measured at 410 nm using a microtiter plate reader. The results are given in the A panel of FIG. 8. In cells expressing WNV-Cp, the activity of capase-3 and caspase-9 was similar to that in cells expressing Bax, a member of the pro-apoptotic Bcl-2 family. […] The expression of the proteins used in this caspase activity assay was detected by Western blotting, and the results are given in the B panel of FIG. 8.

WNV-Cp [1] = experiment: Western blotting of WNV-Cp protein levels in transfected 293T cells; format: cell-based
Protocol: 293T cells were plated onto 60-mm plates at a density of 3×10^5 cells, cultured, and transfected with pcDAN3-HA/WNV-Cp alone, and pcDAN3-HA/WNV-Cp and pCMV-tag2B-Jab1 together using an Effectene transfection reagent (Qiagen). In the case of the co-transfection, to equalize the levels of expressed DNA, 12 hrs after transfection, cells were divided into two plates by pipetting. 20 hrs after transfection, the cells were treated for 4 hrs with 20 μM/ml of the proteasome inhibitor LLnL (N-acetyl-L-luecinyl-norleucinal, Sigma). Then, the cells were washed with 1×PBS and collected. Samples of 50 μg protein were loaded onto a SDS-PAGE gel and analyzed by Western blotting using an anti-HA antibody (Santa Cruz) for the detection of WNV-Cp expression and an anti-Flag M2 antibody (Sigma) for the detection of Jab1 expression. Actin was used as a loading control.

p53 = experiment: Western blotting of endogenous p53 expression in transfected U2OS cells; format: cell-based, human; conditions: U2OS cells transfected with 1, 3 and 5 μg Flag construct, 48 hrs
p53, sequence (P04637 whole entry): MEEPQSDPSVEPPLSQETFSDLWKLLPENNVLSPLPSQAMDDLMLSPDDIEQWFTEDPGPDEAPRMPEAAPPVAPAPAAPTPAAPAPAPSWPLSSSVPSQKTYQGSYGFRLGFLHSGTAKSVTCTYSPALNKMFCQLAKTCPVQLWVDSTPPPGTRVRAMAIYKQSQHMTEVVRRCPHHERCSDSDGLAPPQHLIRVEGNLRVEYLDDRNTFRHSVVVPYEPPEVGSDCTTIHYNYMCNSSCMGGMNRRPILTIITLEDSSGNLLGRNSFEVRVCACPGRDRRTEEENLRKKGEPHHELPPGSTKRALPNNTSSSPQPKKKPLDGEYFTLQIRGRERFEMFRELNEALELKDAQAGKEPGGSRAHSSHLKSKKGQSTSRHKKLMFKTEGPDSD
Protocol: U2OS cells were transfected with Flag/mdm2 (control) and Flag/Jab1 with various concentrations of 1, 3 and 5 μg using a Lipofectamin/plus reagent (Invitrogen). After 48 hrs, cell lysates were collected, and total protein concentrations were measured by a BSA (PIERCE) method. Samples of 100 μg/ml protein were separated on a 10% SDS-PAGE gel and transferred to a nitrocellulose membrane. The blot was blocked with 5% skim milk for 30 min, and treated with a rabbit anti-HA antibody (Santa Cruz) and a mouse anti-Flag antibody (Sigma) to examine expression levels of p53 according to increased expression of mdm2 and Jab1.

WNV-Cp [2] = target: T1, WNV-Cp (West Nile virus, UniProt Q9Q6P4); experiment: Immunoprecipitation of Jab1 with WNV-Cp in cotransfected 293T cells; format: binding; conditions: 293T cells cotransfected with Flag-Jab1 and HA-WNV-Cp, IP with anti-HA antibody
T1 construct: capsid (Cp) protein of West Nile virus (WNV); expressed in transfected cells; host or cells: 293T
T1 sequence (Q9Q6P4 2-105 limits assumed): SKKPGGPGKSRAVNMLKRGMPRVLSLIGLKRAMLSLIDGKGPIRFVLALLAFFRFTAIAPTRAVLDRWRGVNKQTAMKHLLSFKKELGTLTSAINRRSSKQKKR
Protocol: Separately, immunoprecipitation (IP) was performed to confirm the interaction between WNV-Cp and Jab1. 293T cells were cotransfected with Flag-Jab1 and HA-WNV-Cp plasmids, and the whole cell lysates were immunoprecipitated with an anti-HA mouse antibody. As a control, IP was carried out with an anti-Myc antibody. Immunoprecipited proteins were run on a 12% SDS-PAGE gel, transferred to a nitrocellulose membrane, and detected with an anti-Flag mouse antibody to visualize immunoprecipitated Jab1 along with WNV-Cp (FIG. 7).

WNV-Cp [3] = experiment: Immunofluorescence (confocal) localisation of WNV-Cp in cotransfected 293T, U2OS and HeLa cells; format: cell-based, West Nile virus; conditions: U2OS and HeLa cells cotransfected with WNV-Cp and Jab1, 24 hrs
From the text: To evaluate the effect of Jab1, identified to interact with WNV-Cp, on the intracellular location of WNV-cp, 293T, U2OS and HeLa cells were cotransfected with the WNV-Cp protein and Jab1. 293T, U2OS and HeLa cells were cotransfected with HA-tagged pcDNA-HA/WNV-Cp and Flag-tagged pCMV Tag2B-Jab1. After 24 hrs, the cells were stained using an anti-HA antibody (green) and an anti-Flag antibody (red) and observed under a confocal microscope.

[4] = test system: SH-SY5Y cells expressing WNV-Cp; experiment: Annexin V-PE staining / FACS apoptosis rate in cells transfected with WNV-Cp gene; format: cell-based, human; conditions: 200 nM inhibitor added after 6 hrs, measured after 24 hrs, untreated WNV-Cp cells 69.6%
From the text: Human neuroblastoma SH-SY5Y cells were transfected with a WNV-Cp gene. To determine an apoptosis rate in cells expressing the capsid protein of WNV, the cells were stained with annexin V-PE and subjected to FACS analysis (BioRAD, Win BRYTE). As a result, the cells were fractionated into four fractions: A, B, C and D. The A fraction indicates a cell population that was not injected with the WNV-Cp gene and stained with annexin V-PE.
Separately, SH-SY5Y cells were transfected with a WNV-Cp gene. After 6 hrs, the cells were treated with 200 nM of a PI3K inhibitor, wortmanin (Sigma), and 5 μM and 50 μM of an Akt inhibitor, calbiochem (CN Biosciences). After 24 hrs, the cells were stained with annexin V-PE that is capable of detecting a step of apoptosis and subjected to FACS analysis (BioRAD, WinBryte) for measuring an apoptosis rate. […] The transfected cells were analyzed on a FL3 channel (green fluorescence) and annexin V-PE binding was analyzed on a FL2 channel. An apoptosis rate in capsid-expressing cells was calculated according to Reaction 1, below. Cells transfected with a pEGFP-N1 plasmid were used as a negative control, and cells transfected with a C2-Cp plasmid and not treated with the inhibitor were used as a positive control. [Annexin V-PE-positive cells/(all cells expressing C2−Cp)]×100 [Reaction 1]

Jab1: Jun-activation binding protein 1, expressed in cells from plasmid pCMV-tag2B-Jab1 (Flag-tagged); amino acid sequence SEQ ID No. 2
caspase activity (caspase-3 and caspase-9) (caspase-3 and caspase-9): remarkably reduced | protein levels of WNV-Cp (WNV-Cp [1]; 293T cells, co-expression with Jab1 compared to single expression of WNV-Cp): large decrease | expression of p53 (p53): remarkably decreased | interaction with WNV-Cp (co-immunoprecipitation) (WNV-Cp [2]): co-immunoprecipitated with WNV-Cp | intracellular location of WNV-Cp (WNV-Cp [3]): appeared in the cytoplasm

COC[C@H]1OC(=O)c2coc3c2[C@@]1(C)C1=C(C3=O)[C@@H]2CCC(=O)[C@@]2(C)C[C@H]1OC(C)=O [wortmanin]
apoptosis rate [4]: 22.8%

CCCC[C@@H](C=O)NC(=O)[C@H](CC(C)C)NC(=O)[C@H](CC(C)C)NC(C)=O [LLnL, N-acetyl-L-luecinyl-norleucinal, reference compound] (Ac-Leu-Leu-[Nle]-aldehyde)
protein levels of WNV-Cp (WNV-Cp [1]; 293T cells cotransfected with WNV-Cp and Jab1, treated for 4 hrs with 20 μM/ml LLnL): increased
